Experimental data as given in ChEMBL document CHEMBL4330153, “In Vivo Anti-inflammatory and Antiallergic Activity of Pure Naringenin, Naringenin Chalcone, and Quercetin in Mice” (2019).
Activity calls are given as the source filed them. No cut-off for these calls is given here.

Columns and labels:
Mus musculus [1] = assay: Antiallergic activity in CD-1 mouse model of IgE/DNP-BSA-stimulated passive cutaneous anaphylaxis assessed as inhibition of vascular permeability at 1% administered topically immediately after sensitization by Evans blue extravasation assay relative to control; format: functional, organism-based
Mus musculus [2] = assay: Antiallergic activity in CD-1 mouse model of IgE/DNP-BSA-stimulated passive cutaneous anaphylaxis assessed as inhibition of vascular permeability at 0.02%, iv administered immediately after sensitization by Evans blue extravasation assay relative to control; format: functional
Mus musculus [3] = assay: Antiallergic activity in mouse model of picryl-chloride-induced […] allergy at 0.8 mg/kg, po for 5 days relative to control; format: functional
Mus musculus [4] = assay: Antiallergic activity in CD-1 mouse model of IgE/DNP-BSA-stimulated passive cutaneous anaphylaxis assessed as inhibition of vascular permeability at 2% administered topically immediately after sensitization by Evans blue extravasation assay relative to control; format: functional
Mus musculus [5] = assay: (§1) Anti-inflammatory activity in arachidonic acid-induced CD-1 mouse ear edema model assessed as inhibition of ear edema thickness at 2% administered topically immediately after arachidonic acid treatment and measured 1 hr post arachidonic acid treatment relative to control; format: functional
Mus musculus [6] = assay: as §1, with “tetradecanoylphorbol-13-acetate-induced” for “arachidonic acid-induced”, “1%” for “2%”, “tetradecanoylphorbol-13-acetate” for “arachidonic acid”, “4 hrs” for “1 hr”; format: functional
Mus musculus [7] = assay: Antiallergic activity in CD-1 mouse model of IgE/DNP-BSA-stimulated passive cutaneous anaphylaxis assessed as inhibition of vascular permeability at 4% administered topically as oil-in-water emulsion immediately after sensitization by Evans blue extravasation assay relative to control; format: functional, organism-based
Mus musculus [8] = assay: Antiallergic activity in CD-1 mouse model of IgE/DNP-BSA-stimulated passive cutaneous anaphylaxis assessed as inhibition of vascular permeability at 0.2%, iv administered immediately after sensitization by Evans blue extravasation assay; format: functional, organism-based
Mus musculus [9] = assay: Anti-inflammatory activity in arachidonic acid-induced CD-1 mouse ear edema model assessed as inhibition of ear edema thickness at 1% administered topically immediately after arachidonic acid treatment and measured 1 hr post arachidonic acid treatment relative to control; format: functional
Mus musculus [10] = assay: Antiallergic activity in CD-1 mouse model of IgE/DNP-BSA-stimulated passive cutaneous anaphylaxis assessed as inhibition of vascular permeability at 0.1% administered topically immediately after sensitization by Evans blue extravasation assay; format: functional, organism-based
Mus musculus [11] = assay: Antiallergic activity in CD-1 mouse model of IgE/DNP-BSA-stimulated passive cutaneous anaphylaxis assessed as inhibition of vascular permeability at 5% administered topically immediately after sensitization by Evans blue extravasation assay; format: functional, organism-based
Mus musculus [12] = assay: Anti-inflammatory activity in tetradecanoylphorbol-13-acetate-induced CD-1 mouse ear edema model assessed as inhibition of ear edema thickness at 1.3% administered topically immediately after tetradecanoylphorbol-13-acetate treatment and measured 4 hrs post tetradecanoylphorbol-13-acetate treatment; format: functional, organism-based
Mus musculus [13] = assay: Anti-inflammatory activity in arachidonic acid-induced CD-1 mouse ear edema model assessed as inhibition of ear edema thickness at 1.3% administered topically immediately after arachidonic acid treatment and measured 1 hr post arachidonic acid treatment; format: functional, organism-based
Mus musculus [14] = assay: Anti-inflammatory activity in tetradecanoylphorbol-13-acetate-induced CD-1 mouse ear edema model assessed as inhibition of ear edema thickness administered topically immediately after tetradecanoylphorbol-13-acetate treatment and measured 4 hrs post tetradecanoylphorbol-13-acetate treatment; format: functional, organism-based
Mus musculus [15] = assay: Anti-inflammatory activity in arachidonic acid-induced CD-1 mouse ear edema model assessed as inhibition of ear edema thickness administered topically immediately after arachidonic acid treatment and measured 1 hr post arachidonic acid treatment; format: functional, organism-based
Mus musculus [16] = assay: (§2) Anti-inflammatory activity in tetradecanoylphorbol-13-acetate-induced CD-1 mouse ear edema model assessed as inhibition of ear edema thickness at 2% administered topically immediately after tetradecanoylphorbol-13-acetate treatment and measured 4 hrs post tetradecanoylphorbol-13-acetate treatment relative to control; format: functional
Mus musculus [17] = assay: as §2, with “0.5%” for “2%”; format: functional
Mus musculus [18] = assay: Antiallergic activity in mouse model of IgE/DNP-BSA-stimulated passive cutaneous anaphylaxis at 5 mg/kg, ip administered as single dose relative to control; format: functional

CN(C)CCC(c1ccc(Cl)cc1)c1ccccn1 (centres undefined)
inhibition (Mus musculus [1]): Active

O=C(/C=C/c1ccc(O)cc1)c1c(O)cc(O)cc1O [4,2',4',6'-TETRAHYDROXYCHALCONE]
inhibition (INH) (Mus musculus [2]): 68% | Activity (Mus musculus [3]): 47% | inhibition (INH) (Mus musculus [4]): 55% | inhibition (INH) (Mus musculus [5]): 42% | inhibition (INH) (Mus musculus [6]): 27%

O=C(O)c1cc(=O)c2c(OCC(O)COc3cccc4oc(C(=O)O)cc(=O)c34)cccc2o1
inhibition (Mus musculus [7]): inactive | inhibition (Mus musculus [8]): Active | inhibition (Mus musculus [4]): inactive

O=C(O)Cc1ccccc1Nc1c(Cl)cccc1Cl
inhibition (Mus musculus [9]): Active | inhibition (Mus musculus [6]): Active

CCC(=O)O[C@]1(C(=O)COC(C)=O)CC[C@H]2[C@@H]3C[C@H](C)C4=CC(=O)C=C[C@]4(C)[C@H]3[C@@H](O)C[C@@]21C
inhibition (Mus musculus [10]): Active

CC(c1cc2ccccc2s1)N(O)C(N)=O (centres undefined)
inhibition (Mus musculus [11]): Active

O=c1c(O)c(-c2ccc(O)c(O)c2)oc2cc(O)cc(O)c12 [QUERCETIN]
inhibition (INH) (Mus musculus [2]): 80% | inhibition (Mus musculus [12]): Active | Activity (Mus musculus [3]): 15% | inhibition (INH) (Mus musculus [4]): 34% | inhibition (Mus musculus [13]): inactive

O=C1C[C@@H](c2ccc(O)cc2)Oc2cc(O)cc(O)c21 [NARINGENIN]
inhibition (Mus musculus [14]): Dose-dependent effect | inhibition (INH) (Mus musculus [2]): 56% | inhibition (Mus musculus [15]): Dose-dependent effect | inhibition (INH) (Mus musculus [9]): 22% | inhibition (INH) (Mus musculus [16]): 62% | inhibition (INH) (Mus musculus [17]): 32% | Activity (Mus musculus [3]): 15% | inhibition (INH) (Mus musculus [4]): 42% | inhibition (INH) (Mus musculus [5]): 56% | Activity (Mus musculus [18]): 70% | inhibition (INH) (Mus musculus [6]): 56%
